The values below come from PubChem BioAssay (NCI).

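How tested: cells in 96-well plates exposed to compound for 48 hours at five concentrations. Abbreviation: GI50, concentration required for 50% inhibition of growth. TGI marks complete inhibition of growth.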 Where only a bound is given, the exact number is not on record here.

Test systems include HCC-2998 colon; UO-31 renal; KM12 colon; TK-10 renal; UACC-62 melanoma; CCRF-CEM leukemia; M14 melanoma; UACC-257 melanoma; NCI-H460 lung; SK-MEL-28 melanoma; HS 578T breast; MCF7 breast; T-47D breast; SK-MEL-5 melanoma; HOP-62 NSCLC; MALME-3M melanoma.
Assay in all cases: NCI-60 cell line screen, 48 h

Take `O=C(/C=C/c1ccco1)CC(=O)/C=C/c1ccco1`: the TGI is 17.3 µM in the experiment on HCC-2998 colon; 20.2 µM in the experiment on UO-31 renal; more than 55.2 µM in the experiment with KM12 colon; 61.2 µM with TK-10 renal; more than 31.6 µM in the experiment with UACC-62 melanoma; 16.3 µM in the experiment on CCRF-CEM leukemia. Further, the TGI in the experiment on M14 melanoma is more than 31.6 µM; in the experiment with UACC-257 melanoma, more than 100 µM; in the experiment with NCI-H460 lung, 22.2 µM; with SK-MEL-28 melanoma, 17.5 µM; in the experiment on HS 578T breast, 26.8 µM; with MCF7 breast, 19.2 µM. The TGI in the experiment on T-47D breast is more than 31.6 µM; in the experiment on SK-MEL-5 melanoma, 18.1 µM; in the experiment on HOP-62 NSCLC, 17.3 µM; with MALME-3M melanoma, 20.9 µM.
In the case of `COc1cc([N+](=O)[O-])ccc1NC1=CC(=O)CCC1`, the TGI with HCC-2998 colon, with UO-31 renal, in the experiment with KM12 colon, with TK-10 renal, in the experiment with UACC-62 melanoma and in the experiment on CCRF-CEM leukemia was more than 100 µM throughout. Further, the TGI in the experiment with M14 melanoma, with UACC-257 melanoma, with NCI-H460 lung, with SK-MEL-28 melanoma, in the experiment on HS 578T breast and in the experiment on MCF7 breast was more than 100 µM each time. Besides, the TGI in the experiment on T-47D breast, in the experiment on SK-MEL-5 melanoma, in the experiment on HOP-62 NSCLC and in the experiment on MALME-3M melanoma was more than 100 µM each time.
Consider `O=[N+]([O-])O.[Ga]`, for which the TGI is more than 5620 µM in the experiment with HCC-2998 colon; more than 7740 µM with UO-31 renal; more than 10000 µM with KM12 colon; more than 7990 µM in the experiment on TK-10 renal; more than 10000 µM in the experiment on UACC-62 melanoma; 3190 µM in the experiment on CCRF-CEM leukemia. Besides, the TGI in the experiment with M14 melanoma is more than 10000 µM; in the experiment on UACC-257 melanoma it was more than 10000 µM; in the experiment on NCI-H460 lung it was 8990 µM; with SK-MEL-28 melanoma, more than 10000 µM; in the experiment on HS 578T breast, more than 10000 µM; with MCF7 breast, 6200 µM. For the same molecule, the TGI with T-47D breast was more than 9010 µM; in the experiment with SK-MEL-5 melanoma, 1310 µM; in the experiment with HOP-62 NSCLC, 1960 µM; in the experiment with MALME-3M melanoma, 1320 µM. Moreover, in the experiment on UACC-62 melanoma, the GI50 was 892 µM.
`O=C(Cc1ccc(Cl)c(Cl)c1)N(CCc1ccc(Cl)c(Cl)c1)CCN1CCCC1`: the TGI was determined as 3.33 µM in the experiment on HCC-2998 colon; 3.46 µM with UO-31 renal; 3.67 µM in the experiment with KM12 colon; 3.22 µM with TK-10 renal; 3.27 µM with UACC-62 melanoma; 3.12 µM in the experiment with CCRF-CEM leukemia. Besides, the TGI in the experiment with M14 melanoma was 3.56 µM; with UACC-257 melanoma, 3.51 µM; in the experiment on NCI-H460 lung, 3.39 µM; with SK-MEL-28 melanoma, 2.99 µM; in the experiment with HS 578T breast, 11.2 µM; in the experiment with MCF7 breast it was 3.27 µM. Also, the TGI turned out to be 16.1 µM with T-47D breast, 3.41 µM with SK-MEL-5 melanoma, 3.38 µM in the experiment with HOP-62 NSCLC and 3.16 µM in the experiment with MALME-3M melanoma.
Turning to `CN(CCCCN(C)CCc1ccc(Cl)c(Cl)c1)CCCCN1CCCC1`, the TGI in the experiment with HCC-2998 colon came out at 0.384 µM; in the experiment on UO-31 renal, 0.96 µM; in the experiment with KM12 colon, 1.92 µM; in the experiment on TK-10 renal, 2.99 µM; with UACC-62 melanoma, 3.42 µM; in the experiment with CCRF-CEM leukemia, 0.39 µM. The TGI in the experiment with M14 melanoma was determined as 2.16 µM; with UACC-257 melanoma it was 3.06 µM; in the experiment with NCI-H460 lung, 2.98 µM; with SK-MEL-28 melanoma, 1.06 µM; with HS 578T breast, 3.23 µM; in the experiment with MCF7 breast, 2.84 µM. The TGI turned out to be 3.94 µM in the experiment on T-47D breast, 3.19 µM with SK-MEL-5 melanoma, 3.74 µM in the experiment with HOP-62 NSCLC and 3.46 µM in the experiment on MALME-3M melanoma.
For `N#CC(c1cc2c(cc1Br)OCO2)N1CCOCC1` (stereo unspecified), the TGI with HCC-2998 colon, with UO-31 renal, with KM12 colon, in the experiment on TK-10 renal, in the experiment on UACC-62 melanoma and with CCRF-CEM leukemia was more than 100 µM in each case. Moreover, the TGI was more than 100 µM in the experiment with M14 melanoma; more than 100 µM in the experiment on UACC-257 melanoma; more than 100 µM in the experiment with NCI-H460 lung; more than 100 µM in the experiment with SK-MEL-28 melanoma; 83.8 µM in the experiment with HS 578T breast; more than 100 µM with MCF7 breast. Moreover, the TGI in the experiment on T-47D breast, with SK-MEL-5 melanoma, in the experiment on HOP-62 NSCLC and with MALME-3M melanoma was more than 100 µM throughout.
Regarding `COc1cc([C@@H]2c3[nH]c4ccccc4c3C(Nc3ccc([N+](=O)[O-])cc3)[C@H]3COC(=O)N23)cc(OC)c1O` (stereo partly specified), the TGI in the experiment with HCC-2998 colon was determined as 20.3 µM; with UO-31 renal, 3.22 µM; in the experiment with KM12 colon, 2.71 µM; with TK-10 renal, 0.754 µM; in the experiment on UACC-62 melanoma, 1.17 µM; in the experiment with CCRF-CEM leukemia, 0.325 µM. Also, the TGI in the experiment with M14 melanoma came out at 2.2 µM; in the experiment on UACC-257 melanoma, 11.6 µM; with NCI-H460 lung it was 1.44 µM; in the experiment on SK-MEL-28 melanoma, 0.704 µM; in the experiment with HS 578T breast it was 2.79 µM; in the experiment on MCF7 breast it was 0.624 µM. For the same molecule, the TGI is more than 23.2 µM in the experiment with T-47D breast, 0.663 µM with SK-MEL-5 melanoma, 0.302 µM in the experiment on HOP-62 NSCLC and 1.31 µM with MALME-3M melanoma.
Consider `c1ccc2c(c1)Nc1nc3nonc3nc1N2`, for which the TGI in the experiment on HCC-2998 colon, in the experiment on UO-31 renal, in the experiment on KM12 colon, in the experiment with TK-10 renal, in the experiment with UACC-62 melanoma and in the experiment on CCRF-CEM leukemia was more than 100 µM in each case. Further, the TGI in the experiment on M14 melanoma, in the experiment with UACC-257 melanoma, with NCI-H460 lung, in the experiment with SK-MEL-28 melanoma, with HS 578T breast and in the experiment with MCF7 breast was more than 100 µM each time. The TGI with T-47D breast, in the experiment with SK-MEL-5 melanoma, in the experiment on HOP-62 NSCLC and with MALME-3M melanoma was more than 100 µM each time.
With `COC(=O)C1(Cc2ccccc2)Cc2ccc3c(c2C1=O)CCC3` (stereo unspecified), the TGI in the experiment on HCC-2998 colon is more than 100 µM; in the experiment on UO-31 renal, more than 100 µM; with KM12 colon it was more than 100 µM; in the experiment with TK-10 renal, more than 84 µM; with UACC-62 melanoma it was more than 100 µM; in the experiment on CCRF-CEM leukemia it was more than 89.5 µM. Besides, the TGI is 97.7 µM with M14 melanoma; 99.1 µM with UACC-257 melanoma; more than 100 µM with NCI-H460 lung; more than 100 µM in the experiment with SK-MEL-28 melanoma; more than 84.3 µM in the experiment with HS 578T breast; more than 100 µM in the experiment on MCF7 breast. The TGI in the experiment on T-47D breast is more than 100 µM; with SK-MEL-5 melanoma, 49.9 µM; in the experiment on HOP-62 NSCLC, more than 100 µM; in the experiment on MALME-3M melanoma it was 25.4 µM.
For `CC(=O)OCC1OC(n2c(N)c(C#N)c(-c3ccc(C)cc3)c(C#N)c2=S)C(OC(C)=O)C(OC(C)=O)C1OC(C)=O` (stereo unspecified), the TGI with HCC-2998 colon was 34 µM; in the experiment on UO-31 renal, 31.8 µM; in the experiment with KM12 colon, more than 100 µM; in the experiment on TK-10 renal, 37.9 µM; in the experiment with UACC-62 melanoma, more than 100 µM; with CCRF-CEM leukemia, 78.4 µM. For the same molecule, the TGI in the experiment with M14 melanoma was 30 µM; in the experiment with UACC-257 melanoma, 39.7 µM; with NCI-H460 lung, more than 100 µM; with SK-MEL-28 melanoma it was more than 100 µM; in the experiment with HS 578T breast it was 38.7 µM; in the experiment with MCF7 breast it was 51.3 µM. Moreover, the TGI with T-47D breast amounted to 47.8 µM; in the experiment on SK-MEL-5 melanoma it was 23.2 µM; in the experiment on HOP-62 NSCLC, 47.2 µM; in the experiment with MALME-3M melanoma, 33 µM.
